Marks after values point to notes of the source that are not given here.
What was measured:
Assay type in all cases: in vivo
[1] = tested on: Blumeria graminis f. sp. tritici (also known as Erysiphe graminis f. sp. tritici, the causal agent of wheat powdery mildew); assay: Test D: wheat powdery mildew, preventive spray on wheat seedlings, visual disease rating; conditions: for Test D rating (100 = 100% disease control, 0 = no disease control relative to the controls): wheat powdery mildew, preventive spray on wheat seedlings; for Test D rating (% disease control, wheat powdery mildew): 100 = 100% disease control
Method in brief: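 Preventive test: seedlings sprayed to run-off and inoculated with powdery mildew spores one day later. Suspensions were made in 50/50 acetone/water with 250 ppm Trem 014 surfactant (200 ppm equals 800 g/ha). Visual ratings after 8 days at 20 °C give percent disease control versus controls.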

[2] = tested on: Puccinia recondite f. sp. tritici (the causal agent of wheat leaf rust); assay: Test A: wheat leaf rust, preventive spray on wheat seedlings, visual disease rating; conditions: for Test A rating (100 = 100% disease control, 0 = no disease control relative to the controls): wheat leaf rust, preventive spray on wheat seedlings; for Test A rating (% disease control, wheat leaf rust): 100 = 100% disease control
Method in brief: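 This was a preventive test: Puccinia recondite f. sp. tritici inoculum was applied one day after compound spray to run-off. Test suspensions were made in 50/50 acetone/water with 250 ppm surfactant, at 200 ppm (800 g/ha equivalent) or 40 ppm. Visual ratings of % disease control relative to controls were made after 24 h of saturated humidity and 7 growth-chamber days, all at 20° C.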

[3] = tested on: Botrytis cinerea (the causal agent of tomato Botrytis); assay: Test C: tomato Botrytis, preventive spray on tomato seedlings, visual disease rating; conditions: for Test C rating (100 = 100% disease control, 0 = no disease control relative to the controls): tomato Botrytis, preventive spray on tomato seedlings; for Test C rating (% disease control, tomato Botrytis): 100 = 100% disease control
Method in brief: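 Preventive test: B. cinerea spore inoculation one day after tomato seedlings were sprayed to run-off with compound suspended in 50/50 acetone–water plus 250 ppm surfactant. Plants held 48 h at 20° C in saturated air, then 3 days at 24° C; visual ratings scored 100 (full control) to 0 versus controls; some entries used 40 ppm.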

[4] = tested on: Septoria tritici (the causal agent of wheat leaf blotch); assay: Test B: wheat leaf blotch, preventive spray on wheat seedlings, visual disease rating; conditions: for Test B rating (100 = 100% disease control, 0 = no disease control relative to the controls): wheat leaf blotch, preventive spray on wheat seedlings; for Test B rating (% disease control, wheat leaf blotch): 100 = 100% disease control
Method in brief: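 Preventive test: Septoria tritici spores applied one day after run-off spraying of seedlings (200 ppm equals 800 g/ha; some tests 40 ppm). After 48 h at 24 °C saturated atmosphere and 19 days at 20 °C, disease scored visually as % control relative to untreated plants.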

[5] = no asterisk (standard test suspension concentration, not 40 ppm)
[6] = asterisk: 40 ppm test suspension
[7] = no asterisk: standard test suspension concentration, 0 = no control relative to controls
[8] = asterisk: 40 ppm test suspension, 0 = no control

| SMILES | Test D rating (100 = 100% disease control, 0 = no disease control relative to the controls) [1, 5] | Test A rating (100 = 100% disease control, 0 = no disease control relative to the controls) [2, 5] | Test C rating (100 = 100% disease control, 0 = no disease control relative to the controls) [3, 5] | Test B rating (100 = 100% disease control, 0 = no disease control relative to the controls) [4, 5] | Test D rating (100 = 100% disease control, 0 = no disease control relative to the controls) [1, 6] | Test A rating (100 = 100% disease control, 0 = no disease control relative to the controls) [2, 6] | Test C rating (100 = 100% disease control, 0 = no disease control relative to the controls) [3, 6] | Test B rating (100 = 100% disease control, 0 = no disease control relative to the controls) [4, 6] | also measured |
| --- | --- | --- | --- | --- | --- | --- | --- | --- | --- |
| Cc1nc(Cl)n(-c2c(F)cc(F)cc2Br)c1C(O)c1ccc(F)cc1F (single isomer, unassigned) [compound 16] | 100% | 100% | 100% | 100% | – | – | – | – | – |
| Cc1nc(Br)c(C(O)c2c(F)cc(F)cc2F)n1-c1ccc(F)cc1Br (stereo not drawn) [compound 176] | 96% | 100% | 100% | 100% | – | – | – | – | – |
| Cc1nc(Br)c(C(O)c2ccc(Cl)cc2Cl)n1-c1ccc(F)cc1F (racemic) [compound 259] | 0% | 99% | 0% | 100% | – | – | – | – | – |
| COc1cc(F)c(C(O)c2cnc(C)n2-c2ccc(F)cc2Br)c(F)c1 (stereo not drawn) [compound 322] | – | – | – | – | 0* % | 28* % | 0* % | 2* % | – |
| Cc1nc(Cl)n(-c2ccc(F)cc2Cl)c1C(O)c1ccc(F)cc1F (single isomer, unassigned) [compound 28] | 71% | 100% | 100% | 100% | – | – | – | – | – |
| Cc1nc(Cl)c(C(O)c2ccc(Cl)cc2Cl)n1-c1ccc(F)cc1F (racemic) [compound 270] | – | – | – | – | 0* % | 95* % | 0* % | 69* % | – |
| Cc1cccc(Cl)c1-n1c(C)nc(Br)c1C(O)c1ccc(F)cc1F (stereo not drawn) [compound 317] | – | – | – | – | 56* % | 100* % | 96* % | 89* % | – |
| OC(c1ccc(F)cc1Cl)c1c(Br)nc(Cl)n1-c1ccc(F)cc1Cl (racemic) [compound 218] | – | – | – | – | 89* % | 100* % | 100* % | 100* % | – |
| Cc1ncc(C(O)c2cccnc2)n1-c1c(F)cc(F)cc1F (stereo not drawn) [compound 181] | 0% | 0% | 0% | 1% | – | – | – | – | – |
| COc1cc(OC)cc(-n2c(C)nc(Br)c2C(O)c2c(F)cc(F)cc2F)c1 (racemic) [compound 279] | – | – | – | – | 0* % | 0* % | 0* % | 0* % | – |
| COc1cc(F)c(C(O)c2c(Cl)nc(C)n2-c2c(F)cccc2F)c(F)c1 (stereo not drawn) [compound 192] | – | – | – | – | 53* % | 100* % | 100* % | 100* % | – |
| Cc1nc(Cl)c(C(O)c2ccc(F)cc2Br)n1-c1ccc(F)cc1F (stereo not drawn) [compound 313] | – | – | – | – | 0* % | 100* % | 17* % | 100* % | – |
| COc1ccc(-n2c(Cl)nc(Cl)c2C(O)c2c(F)cc(F)cc2F)c(F)c1 (stereo not drawn) [compound 327] | – | – | – | – | 29* % | 100* % | 100* % | 100* % | – |
| OC(c1ccc(F)cc1F)c1c(Br)ncn1-c1c(F)cccc1F (stereo not drawn) [compound 96] | – | – | – | – | 0* % | 68* % | 40* % | 100* % | – |
| COc1ccc(C(O)c2c(Cl)nc(C)n2-c2c(F)cc(F)cc2Cl)c(Cl)c1 (stereo not drawn) [compound 350] | – | – | – | – | 98* % | 100* % | 98* % | 100* % | – |
| Cc1nc(Br)c(C(O)c2ccc(Cl)cc2Cl)n1-c1c(F)cccc1Cl (stereo not drawn) [compound 201] | – | – | – | – | 89* % | 100* % | 99* % | 100* % | – |
| OC(c1ccc(F)cc1F)c1c(Cl)nc(Cl)n1-c1ccc(F)cc1F (single isomer, unassigned) [compound 79] | 0% | 100% | 98% | 100% | – | – | – | – | – |
| OC(c1ccc(Cl)cc1)c1c(Cl)nc(Cl)n1-c1ccc(F)cc1Cl (single isomer, unassigned) [compound 48] | 85% | 100% | 100% | 100% | – | – | – | – | – |
| OC(c1ccc(F)cc1Br)c1cnc(C2CC2)n1-c1c(F)cccc1Br (stereo not drawn) [compound 95] | 0% | 0% | 0% | 0% | – | – | – | – | – |
| Cc1ncc(C(O)c2ccc(F)cc2F)n1-c1ccc(F)cc1Cl (stereo not drawn) [compound 396] | – | – | – | – | – | – | – | – | Test D rating (% disease control, wheat powdery mildew) [1, 7]: 0%; Test A rating (% disease control, wheat leaf rust) [2, 7]: 100%; Test C rating (% disease control, tomato Botrytis) [3, 7]: 87%; Test B rating (% disease control, wheat leaf blotch) [4, 7]: 100% |
| Cc1cc(F)ccc1C(O)c1c(Cl)nc(C)n1-c1c(F)cc(F)cc1Br (stereo not drawn) [compound 315] | – | – | – | – | 96* % | 99* % | 96* % | 100* % | – |
| Cc1cc(F)ccc1C(O)c1c(Br)nc(C)n1-c1c(F)cccc1Cl (stereo not drawn) [compound 186] | – | – | – | – | 97* % | 99* % | 99* % | 100* % | – |
| COc1cc(F)c(-n2c(C)nc(Br)c2C(O)c2ccc(F)cc2F)c(F)c1 (stereo not drawn) [compound 412] | – | – | – | – | – | – | – | – | Test D rating (% disease control, wheat powdery mildew) [1, 8]: 0* %; Test A rating (% disease control, wheat leaf rust) [2, 8]: 100* %; Test C rating (% disease control, tomato Botrytis) [3, 8]: 0* %; Test B rating (% disease control, wheat leaf blotch) [4, 8]: 100* % |
| Cc1nc(Cl)c(C(O)c2ccc(F)cc2Cl)n1-c1c(F)cccc1F (stereo not drawn) [compound 98] | – | – | – | – | 99* % | 100* % | 100* % | 100* % | – |

— patent US20130143929A1, “FUNGICIDAL IMIDAZOLES” (EI DU PONT DE NEMOURS AND COMPANY, priority 2010, published 2013)
